Calls of active or inactive are those of the source. The calls are words filed in the database; no cut-off is given here.
Columns and labels:
[1] = molecular target: T1, Amyloid-beta precursor protein (Homo sapiens, UniProt P05067); assay: Displacement of [3H]AZD2184 from human amyloid beta(1 to 40)
Mus musculus = assay: Binding affinity to amyloid beta(1 to 40) in Tg2576 mouse plaque at 150 nmol/kg, iv after 10 mins by autoradiography analysis; format: functional, organism-based
[2] = molecular target: T1, Amyloid-beta precursor protein; assay: Binding affinity to amyloid beta(1 to 40) in cortical section isolated from Alzheimer disease patient at 1 nM by autoradiographic analysis
[3] = molecular target: T1, Amyloid-beta precursor protein; assay: Binding affinity to amyloid beta(1 to 40) in cortical section isolated from Alzheimer disease patient by autoradiographic analysis; conditions: tested as the 3H-labelled form

T1 sequence (P05067 whole entry): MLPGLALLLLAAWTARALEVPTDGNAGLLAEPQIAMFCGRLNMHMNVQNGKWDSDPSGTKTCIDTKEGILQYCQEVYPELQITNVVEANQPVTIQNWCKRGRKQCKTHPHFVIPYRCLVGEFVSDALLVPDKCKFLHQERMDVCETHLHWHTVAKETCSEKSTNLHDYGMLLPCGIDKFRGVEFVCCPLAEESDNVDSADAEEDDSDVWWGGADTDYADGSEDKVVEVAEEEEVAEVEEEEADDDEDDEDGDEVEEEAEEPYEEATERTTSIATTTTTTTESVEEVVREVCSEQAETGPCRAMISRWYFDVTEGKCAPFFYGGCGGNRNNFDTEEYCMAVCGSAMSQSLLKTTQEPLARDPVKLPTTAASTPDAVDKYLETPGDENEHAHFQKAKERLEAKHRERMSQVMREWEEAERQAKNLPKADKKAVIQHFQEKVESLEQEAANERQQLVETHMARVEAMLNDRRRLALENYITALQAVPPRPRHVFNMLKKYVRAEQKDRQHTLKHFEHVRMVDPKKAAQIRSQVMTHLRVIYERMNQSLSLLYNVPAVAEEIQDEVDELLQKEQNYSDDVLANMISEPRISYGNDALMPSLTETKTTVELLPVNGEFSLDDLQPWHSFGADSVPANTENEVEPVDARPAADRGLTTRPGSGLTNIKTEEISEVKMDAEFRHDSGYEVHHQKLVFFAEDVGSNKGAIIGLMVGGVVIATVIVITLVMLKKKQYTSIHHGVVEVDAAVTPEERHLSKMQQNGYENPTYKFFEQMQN

CNc1ccc(-c2nc3ccc(O)cc3s2)nc1F
IC50 [1]: 44 nM

NC(=O)c1ccc(-c2cc3cc(O)ccc3o2)c(F)n1
IC50 [1]: 44 nM

CNc1ccc(-c2cc3cc(C(N)=O)ccc3o2)c(F)n1
IC50 [1]: 19 nM

Oc1ccc2nc(-c3ccc(NCCF)nc3)oc2c1
IC50 [1]: 158 nM

CNc1ccc(-c2cc3cc(O)ccc3o2)c(F)n1 [FLUTAFURANOL]
Activity (Mus musculus; tested as the 3H-labelled form): Active | IC50 [1]: 24 nM | Activity ([2]; tested as the 3H-labelled form): Active

CNc1ccc(-c2nc3ccc(O)cc3s2)cc1F [FLUTEMETAMOL]
Activity (Mus musculus): Active | IC50 [1]: 24 nM | Activity [2]: Active

Oc1ccc2nc(-c3ccc(NCCCF)nc3)sc2c1
IC50 [1]: 66 nM

CNc1ncc(-c2cc3cc(O)ccc3o2)cc1F
IC50 [1]: 30 nM

CNc1ccc(-c2cc3cc(C(N)=O)ccc3o2)nc1F
IC50 [1]: 32 nM

CNc1ccc(-c2nc3ccc(OC)cc3s2)c(F)n1
IC50 [1]: 14 nM

COc1ccc2nc(-c3ccc(NCCF)nc3)oc2c1
Activity [3]: inactive | IC50 [1]: 35 nM

COc1ccc2oc(-c3ccc(C(N)=O)nc3F)cc2c1
IC50 [1]: 32 nM

Oc1ccc2nc(-c3ccc(NCCF)nc3)sc2c1
IC50 [1]: 33 nM

CNc1ccc(-c2nc3ccc(O)cc3s2)c(F)n1
IC50 [1]: 124 nM

CNc1ccc(-c2cc3cc(O)ccc3o2)nc1F
IC50 [1]: 35 nM

CNc1ccc(-c2nc3ccc(O)cc3s2)cn1
IC50 [1]: 22 nM

Oc1ccc2nc(-c3ccc(NCCCF)nc3)oc2c1
IC50 [1]: 395 nM

CNc1ncc(-c2nc3ccc(O)cc3s2)cc1F
IC50 [1]: 98 nM

Source: ChEMBL document CHEMBL2046417, “Synthesis and evaluation of pyridylbenzofuran, pyridylbenzothiazole and pyridylbenzoxazole derivatives as ¹⁸F-PET imaging agents for β-amyloid plaques” (Bioorg Med Chem Lett, 2012)
